Laboratory results reported in BigSolDB 2.1.

Nc1cnc(Cl)cn1
solubility (mole fraction)
Conditions	278.15 K	283.15 K	288.15 K	293.15 K	298.15 K	303.15 K	308.15 K	313.15 K	318.15 K	323.15 K
in ethanol	0.00222	0.00302	0.00388	0.00477	0.0058	0.00692	0.00813	0.00961	0.0111	0.0131
in ethylene glycol	0.000321	0.000398	0.000506	0.000615	0.000747	0.000868	0.00102	0.00117	0.00136	0.00157
in methanol	0.00319	0.00442	0.00573	0.0073	0.00915	0.0109	0.0127	0.0149	0.0173	0.0201
in n-propanol	0.000781	0.001	0.00126	0.00152	0.00181	0.00214	0.00252	0.00291	0.00334	0.00383
in water	3.69e-05	4.76e-05	6.03e-05	7.35e-05	8.88e-05	0.000106	0.000123	0.000141	0.000161	0.000182
